Data published in patent US20090305239A1, “Methods and compositions for determing a level of biologically active serum paraoxonase” (priority 2005, published 2009).
Values joined by “and” are separate entries in the source; they are usually repeats but may differ in a detail not shown here. Equal entries are not always repeated.

What was measured:
PON1 in human sera [1] = biological target: T1, PON1 in human sera (Homo sapiens, UniProt P27169); assay: Serum lactonase activity with TBBL (DTNB, 412 nm), with and without inhibitors; assay type: biochemical
T1 sequence (P27169 whole entry): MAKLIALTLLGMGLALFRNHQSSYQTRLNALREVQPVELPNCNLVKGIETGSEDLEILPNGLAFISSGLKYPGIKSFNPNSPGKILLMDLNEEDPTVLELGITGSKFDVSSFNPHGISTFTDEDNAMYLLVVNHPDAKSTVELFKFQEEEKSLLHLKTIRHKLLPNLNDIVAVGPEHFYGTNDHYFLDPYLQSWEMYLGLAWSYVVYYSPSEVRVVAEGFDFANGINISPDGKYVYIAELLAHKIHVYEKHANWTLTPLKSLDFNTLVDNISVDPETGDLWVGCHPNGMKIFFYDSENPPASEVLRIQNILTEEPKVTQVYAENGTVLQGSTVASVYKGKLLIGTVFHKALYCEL
Procedure: (§1) Hydrolysis of phenyl acetate was monitored directly by absorbance at 270 nm (FIG. 2b).
(§2) The reaction mixtures of phenyl acetate contained 1 mM phenyl acetate from 500 mM stock in methanol. All the reaction mixtures contained final 1% DMSO. […] The serum was incubated with the inhibitors for 5-10 minutes before the initiation of the reaction.
(§3) In parallel, we the PON1 activity was determined with phenyl acetate, which is routinely used as a probe for PON1 levels in the serum.

PON1 in human sera [2] = biological target: T1, PON1 in human sera; details: samples #1 and #2
Procedure: as §1, §2, §3

PON1 in human sera [3] = biological target: T1, PON1 in human sera; assay: biochemical; details: read-out: Serum activity with 1 mM phenyl acetate, 100 μM HQ (% of uninhibited activity), human serum 1:400 pre-incubated with 100 μM HQ; samples #1 and #2
Procedure: as §1, §2, §3

[4] = system: E. coli cells expressing recombinant PON1 (rePON1); assay: Detection of PON1 lactonase activity in living cells by FACS in w/o/w emulsions with TBBL and CPM; assay type: cell-based; details: TBBL with thiol-detecting dye CPM, emission at 530 nm, single E. coli cells in w/o/w emulsion
Source text: Shown are representative histograms of the fluorescent emission at 530 nm (the thiol-CPM adduct) for single cells expressing GFP and PON1 (white), and control cells with GFP only (grey).
PON1 activity was also detected in living cells, using FACS (fluorescence-activated cell sorter) and emulsion droplets that compartmentalize the cells together with the products of the enzymatic activity^[15, 16]. […] The w/o emulsion was then re-emulsified, to generate the w/o/w double emulsion with a continuous water phase that is amenable to FACS^[15]. The FACS triggering threshold was set for the emission of GFP, and an appropriate gate was chosen corresponding to the level of emission of single E. coli cells^[16]. […] A clear difference (>20-fold in mean fluorescence) was observed relative to cells bearing no rePON1

PON3 = assay: Lactonase activity of PON3 in purified enzyme samples and crude cell lysates; assay type: biochemical; details: data not shown
[5] = system: recombinant PON1 variant rePON1-G2E6; details: substrate hydrolysis by rePON1; 50 mM Tris pH 8.0, 1 mM CaCl2, 50 mM NaCl; DTNB detection
Procedure: The kinetic parameters of enzymatic hydrolysis of the three TXBLs by PON1 were determined by detecting the released thiol moiety with DTNB.
Kinetics were performed with recombinant PON1 variant rePON1-G2E6 expressed in fusion with a thioredoxin and 6×His tag, and purified as described^[19].
Kinetic measurements with DTNB—The rates of enzymatic hydrolyses of the thioalkyl-substituted lactones were determined in 50 mM Tris pH 8.0 with 1 mM CaCl2 and 50 mM NaCl (activity buffer). The enzyme stocks were kept in activity buffer containing 0.1% tergitol, and the enzyme concentration used was 8.375×10^−9 M. Stocks of 100-400 mM of substrates were prepared in acetonitrile and diluted with the reaction buffer immediately before initializing the reaction. […] The substrate concentrations were varied in the range of 0.3×KM up to (2-3)×KM. The co-solvent percentage was kept at 1% in all reactions. The DTNB dye (Ellman's reagent, 5′,5-dithio bis(2-nitrobenzoic acid) was used from 100 mM stock in DMSO, at a final concentration of 0.5 mM. An ε412 nm=7000 OD/M was used to calculate the activity. Product formation was monitored spectrophotometrically at 412 nm in 200 μl reaction volumes, using 96-well plates, on a microtiter plate reader (PowerWave HT™ Microplate Scanning Spectrophotometer; optical length ˜0.5 cm). Initial velocities (v0) were determined at eight different concentrations for each substrate. v0 values were corrected for the background rate of spontaneous hydrolysis in the absence of enzyme. Kinetic parameters (kcat, KM, kcat/KM) were obtained by fitting the data to the Michaelis-Menten equation [v0=kcat[E]0[S]0/([S]0+KM)], using the program Kaleidagraph 5.0.

rePON1 = rePON1 with 5-alkyl butyrolactones, taken from Ref. 4; cited from earlier work
[6] = human serum 1:400 pre-incubated with 5 mM EDTA

Compound: Oc1ccc2ccccc2n1 [HQ, 2-hydroxyquinoline]
- Serum activity with 0.5 mM TBBL, 100 μM HQ (PON1 in human sera [1]; human serum 1:400 pre-incubated with 100 μM HQ, samples #1 and #2): 2.09 ± 0.04 μM product/min and 1.80 ± 0.01 μM product/min
- activity at 100 µM (PON1 in human sera [1]; read-out: Serum activity with 0.5 mM TBBL, 100 μM HQ (% of uninhibited activity), human serum 1:400 pre-incubated with 100 μM HQ, samples #1 and #2): 8.6%
- Serum activity with 1 mM phenyl acetate, 100 μM HQ (PON1 in human sera [2]; human serum 1:400 pre-incubated with 100 μM HQ): 5.9 ± 0.4 μM product/min and 3.9 ± 0.3 μM product/min
- activity at 100 µM (PON1 in human sera [3]): 4.9%

Compound: CCCCSC1CCC(=O)O1 (stereo not drawn) [TBBL, 5-butylsulfanyl-dihydro-furan-2-one]
- difference in mean fluorescence relative to cells bearing no rePON1 [4]: > 20 fold
- lactonase activity of PON3 assayed with the substrate (PON3): could be assayed
- Km [5]: 270 ± 40 µM
- kcat [5]: 116 ± 4 s⁻¹

Compound: O=C(O)CN(CCN(CC(=O)O)CC(=O)O)CC(=O)O [EDTA]
- Serum activity with 0.5 mM TBBL, 5 mM EDTA (PON1 in human sera [1]; human serum 1:400 pre-incubated with 5 mM EDTA, samples #1 and #2): 0.04 ± 0.01 μM product/min and 0.06 ± 0.01 μM product/min
- inhibition rates by EDTA (PON1 in human sera [1]; serum lactonase (TBBL) and aryl esterase (phenyl acetate) activities, 5 mM EDTA): > 99%
- Serum activity with 1 mM phenyl acetate, 5 mM EDTA (PON1 in human sera [2]; [6]): ~0 μM product/min
- Serum activity with 1 mM phenyl acetate, 5 mM EDTA (% of uninhibited activity) (PON1 in human sera [2]; [6]): (0%)

Compound: CCSC1CCC(=O)O1 (stereo not drawn) [TEBL, 5-ethylsulfanyl-dihydro-furan-2-one]
- lactonase activity of PON3 assayed with the substrate (PON3): could be assayed
- Km [5]: 360 ± 50 µM
- kcat [5]: 161 ± 10 s⁻¹

Compound: CCCCCCSC1CCC(=O)O1 (stereo not drawn) [THBL, 5-hexylsulfanyl-dihydro-furan-2-one]
- Km [5]: 350 ± 30 µM
- kcat [5]: 52.4 ± 2.6 s⁻¹

Compound: CCCCCC1CCC(=O)O1 (stereo not drawn) [γ-nonanoic lactone]
- Km (rePON1): 390 ± 30 µM
- kcat (rePON1): 31 ± 2 s⁻¹

Compound: CCCCCCCC1CCC(=O)O1 (stereo not drawn) [γ-undecanoic lactone]
- Km (rePON1): 600 ± 70 µM
- kcat (rePON1): 62 ± 2 s⁻¹
